Reference: PubChem BioAssay (NCI)
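Grown in 96-well plates, cells were treated for 48 hours with each compound at five concentrations. Insufficient inhibition: endpoint recorded as highest concentration tested. Abbreviation: GI50, concentration required for 50% inhibition of growth. TGI marks complete inhibition of growth.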

Assays:
Assay in all cases: NCI anticancer screen, dose series, 48 h
A549 NSCLC = system: A549 NSCLC
CCRF-CEM leukemia = system: CCRF-CEM leukemia
SF-539 CNS = system: SF-539 CNS
SR leukemia = system: SR leukemia
RXF 393 renal = system: RXF 393 renal
OVCAR-3 ovarian = system: OVCAR-3 ovarian
M19-MEL melanoma = system: M19-MEL melanoma
KM20L2 colon = system: KM20L2 colon
DMS 114 small cell lung = system: DMS 114 small cell lung

CN(C)c1ccc(O)c2c1C[C@H]1C[C@H]3[C@H](N(C)C)C(=O)C(C(N)=O)=C(O)[C@@]3(O)C(=O)C1=C2O
GI50 (A549 NSCLC): 5.65 µM | TGI (A549 NSCLC): > 100 µM | GI50 (CCRF-CEM leukemia): 6.27 µM | TGI (CCRF-CEM leukemia): 65.9 µM | GI50 (SF-539 CNS): 3.88 µM | TGI (SF-539 CNS): 15.5 µM | GI50 (SR leukemia): 3.48 µM | TGI (SR leukemia): 22.3 µM | GI50 (RXF 393 renal): 4.01 µM | TGI (RXF 393 renal): 69.7 µM | GI50 (OVCAR-3 ovarian): 4.92 µM | TGI (OVCAR-3 ovarian): 39.5 µM

COc1cccc2c(=O)c3c(sc12)c(NCCN(C)C)nc1ccccc13
GI50 (A549 NSCLC): 1.22 µM | TGI (A549 NSCLC): 2.8 µM | GI50 (CCRF-CEM leukemia): 1.34 µM | TGI (CCRF-CEM leukemia): 2.97 µM | GI50 (SF-539 CNS): 1.61 µM | TGI (SF-539 CNS): 3.01 µM | GI50 (SR leukemia): 0.612 µM | TGI (SR leukemia): 2.45 µM | GI50 (RXF 393 renal): 1.29 µM | TGI (RXF 393 renal): 2.65 µM | GI50 (OVCAR-3 ovarian): 1.61 µM | TGI (OVCAR-3 ovarian): 3.22 µM

COc1cc(/C=C/C(=O)c2c(C)n([O-])c3ccc(Cl)cc3[n+]2=O)cc(OC)c1OC
GI50 (A549 NSCLC): 59.8 µM | TGI (A549 NSCLC): > 100 µM | GI50 (CCRF-CEM leukemia): > 100 µM | TGI (CCRF-CEM leukemia): > 100 µM | GI50 (SF-539 CNS): 25.4 µM | TGI (SF-539 CNS): 52.6 µM | GI50 (SR leukemia): 8.4 µM | TGI (SR leukemia): > 100 µM | GI50 (RXF 393 renal): 10.2 µM | TGI (RXF 393 renal): 30.2 µM | GI50 (OVCAR-3 ovarian): > 100 µM | TGI (OVCAR-3 ovarian): > 100 µM

O=C(NCP(=O)(O)O)c1cccnc1
TGI (A549 NSCLC): > 100 µM | TGI (CCRF-CEM leukemia): > 100 µM | TGI (SF-539 CNS): > 100 µM | TGI (SR leukemia): > 100 µM | TGI (RXF 393 renal): > 100 µM | TGI (OVCAR-3 ovarian): > 100 µM

O=C(CCCCCCC(=O)Nc1ccc2c(c1)/C(=C/c1ccc[nH]1)C(=O)N2)NO
GI50 (A549 NSCLC): 2.87 µM | TGI (A549 NSCLC): 15.2 µM | GI50 (CCRF-CEM leukemia): 0.0923 µM | TGI (CCRF-CEM leukemia): > 100 µM | GI50 (SF-539 CNS): 0.603 µM | TGI (SF-539 CNS): 16 µM | GI50 (SR leukemia): 0.253 µM | TGI (SR leukemia): > 100 µM | GI50 (RXF 393 renal): 0.487 µM | TGI (RXF 393 renal): 3.66 µM | GI50 (OVCAR-3 ovarian): 0.354 µM | TGI (OVCAR-3 ovarian): 5.51 µM

COC(=O)[C@@]1(O)C[C@H]2O[C@]1(C)n1c3ccccc3c3c4c(c5c6ccccc6n2c5c31)C(=O)NC4
GI50 (A549 NSCLC): 0.24 µM | TGI (A549 NSCLC): 2.85 µM | GI50 (CCRF-CEM leukemia): 0.321 µM | TGI (CCRF-CEM leukemia): 1.64 µM | GI50 (SF-539 CNS): 0.356 µM | TGI (SF-539 CNS): 1.42 µM | GI50 (SR leukemia): 0.0686 µM | TGI (SR leukemia): 1.75 µM | GI50 (RXF 393 renal): 0.159 µM | TGI (RXF 393 renal): 1.49 µM | GI50 (OVCAR-3 ovarian): 0.587 µM | TGI (OVCAR-3 ovarian): 3.22 µM

CCCCCCCCCCCC[n+]1ccc(C(N)=O)cc1
GI50 (A549 NSCLC): 10.1 µM | TGI (A549 NSCLC): 26.2 µM | GI50 (CCRF-CEM leukemia): 3.61 µM | TGI (CCRF-CEM leukemia): > 100 µM | GI50 (SF-539 CNS): 2.36 µM | TGI (SF-539 CNS): 6.31 µM | GI50 (SR leukemia): 4.67 µM | TGI (SR leukemia): > 100 µM | GI50 (RXF 393 renal): 1.74 µM | TGI (RXF 393 renal): 5.46 µM | GI50 (OVCAR-3 ovarian): 2.28 µM | TGI (OVCAR-3 ovarian): 8.72 µM

C=C1C(=O)O[C@H]2[C@H]1CC/C(CNS(=O)(=O)c1cccc3ccccc13)=C\CC[C@@]1(C)O[C@@H]21
GI50 (A549 NSCLC): 11.5 µM | TGI (A549 NSCLC): 32.4 µM | GI50 (CCRF-CEM leukemia): 0.624 µM | TGI (CCRF-CEM leukemia): 3.82 µM | GI50 (SF-539 CNS): 1.77 µM | TGI (SF-539 CNS): 4.02 µM | GI50 (SR leukemia): 1.31 µM | TGI (SR leukemia): 6.11 µM | GI50 (RXF 393 renal): 1.26 µM | TGI (RXF 393 renal): 2.87 µM | GI50 (OVCAR-3 ovarian): 1.16 µM | TGI (OVCAR-3 ovarian): 2.48 µM

O=C(/C=C/c1ccc(C(F)(F)F)cc1)c1ccc(Nc2nc(NCCO)nc(N3CCOCC3)n2)cc1
GI50 (A549 NSCLC): 2.74 µM | TGI (A549 NSCLC): > 100 µM | GI50 (CCRF-CEM leukemia): 2.41 µM | TGI (CCRF-CEM leukemia): 6.61 µM | GI50 (SF-539 CNS): 1.64 µM | TGI (SF-539 CNS): 3.06 µM | GI50 (SR leukemia): 3.1 µM | TGI (SR leukemia): > 100 µM | GI50 (RXF 393 renal): 1.63 µM | TGI (RXF 393 renal): 3.26 µM | GI50 (OVCAR-3 ovarian): 1.96 µM | TGI (OVCAR-3 ovarian): 3.79 µM

COc1ccc2c(c1)OC(N)=C(C#N)C2c1ccc(F)cc1 (stereo unspecified)
GI50 (A549 NSCLC): 4.94 µM | TGI (A549 NSCLC): > 100 µM | GI50 (CCRF-CEM leukemia): 2.31 µM | TGI (CCRF-CEM leukemia): > 100 µM | GI50 (SF-539 CNS): 1.64 µM | TGI (SF-539 CNS): 6.58 µM | GI50 (SR leukemia): 0.51 µM | TGI (SR leukemia): > 100 µM | GI50 (RXF 393 renal): 2.28 µM | TGI (RXF 393 renal): 17.8 µM | GI50 (OVCAR-3 ovarian): 0.829 µM | TGI (OVCAR-3 ovarian): 14.2 µM

N=C(N)c1ccc(-c2ccc(-c3cccs3)s2)nc1
GI50 (A549 NSCLC): 0.023 µM | TGI (A549 NSCLC): 1.28 µM | GI50 (CCRF-CEM leukemia): 1.78 µM | TGI (CCRF-CEM leukemia): 4.19 µM | GI50 (SF-539 CNS): 1.57 µM | TGI (SF-539 CNS): 3.08 µM | GI50 (SR leukemia): 1.27 µM | TGI (SR leukemia): 5.47 µM | GI50 (RXF 393 renal): 1.56 µM | TGI (RXF 393 renal): 3.54 µM | GI50 (OVCAR-3 ovarian): 0.234 µM | TGI (OVCAR-3 ovarian): 2.31 µM

O=C(N/N=C\c1ccc(N(CCCl)CCCl)cc1Cl)c1cccnc1
GI50 (A549 NSCLC): 7.57 µM | TGI (A549 NSCLC): 73.8 µM | GI50 (CCRF-CEM leukemia): 14.5 µM | TGI (CCRF-CEM leukemia): > 90.6 µM | GI50 (SF-539 CNS): 33.1 µM | TGI (SF-539 CNS): > 100 µM | GI50 (SR leukemia): 7.23 µM | TGI (SR leukemia): 69.6 µM | GI50 (RXF 393 renal): 14.2 µM | TGI (RXF 393 renal): 51.9 µM | GI50 (OVCAR-3 ovarian): 3.37 µM | TGI (OVCAR-3 ovarian): 14.3 µM

COc1ccc(/C=C/C(=O)c2cc3c(N)c(C(=O)Nc4ccccc4)sc3nc2C)cc1
GI50 (A549 NSCLC): 0.273 µM | TGI (A549 NSCLC): > 50 µM | GI50 (CCRF-CEM leukemia): 0.184 µM | TGI (CCRF-CEM leukemia): > 28.7 µM | GI50 (SF-539 CNS): 0.105 µM | TGI (SF-539 CNS): 0.286 µM | GI50 (SR leukemia): 0.207 µM | TGI (SR leukemia): > 50 µM | GI50 (RXF 393 renal): 0.114 µM | TGI (RXF 393 renal): 2.31 µM | GI50 (OVCAR-3 ovarian): 0.146 µM | TGI (OVCAR-3 ovarian): 0.791 µM

O=C1C[C@H]2CC3(CC[C@H]2CN1)OCCO3
TGI (A549 NSCLC): > 100 µM | TGI (CCRF-CEM leukemia): > 100 µM | TGI (SF-539 CNS): > 100 µM | TGI (M19-MEL melanoma): > 100 µM | TGI (RXF 393 renal): > 100 µM | TGI (OVCAR-3 ovarian): > 100 µM

C/C(=C\CC[C@]1(C)OC(C)(C)OC1CC/C(C)=C/CO[Si](c1ccccc1)(c1ccccc1)C(C)(C)C)CC/C=C/CO[Si](C)(C)C(C)(C)C (stereo partly specified)
TGI (A549 NSCLC): > 100 µM | TGI (CCRF-CEM leukemia): > 100 µM | TGI (SF-539 CNS): > 100 µM | TGI (KM20L2 colon): > 100 µM | TGI (M19-MEL melanoma): > 100 µM | TGI (RXF 393 renal): > 100 µM | TGI (DMS 114 small cell lung): > 100 µM | TGI (OVCAR-3 ovarian): > 100 µM

C=C1CC[C@@H]2[C@](C)(COC(C)=O)[C@H](OC(C)=O)CC[C@@]2(C)[C@@H]1C/C=C1/C(=O)OC[C@H]1OC(C)=O
GI50 (A549 NSCLC): 11.9 µM | TGI (A549 NSCLC): 30.7 µM | GI50 (CCRF-CEM leukemia): 1.12 µM | TGI (CCRF-CEM leukemia): 5.32 µM | GI50 (SF-539 CNS): 1.7 µM | TGI (SF-539 CNS): 3.22 µM | GI50 (SR leukemia): 2.59 µM | TGI (SR leukemia): 10.1 µM | GI50 (RXF 393 renal): 1.95 µM | TGI (RXF 393 renal): 4.13 µM | GI50 (OVCAR-3 ovarian): 2.17 µM | TGI (OVCAR-3 ovarian): 4.21 µM

CCCN(CCC)C(=O)[C@H](CC)[C@@H]1CC[C@@H](C)[C@@H]([C@H](C)[C@@H](O)[C@@H](C)C(=O)[C@H](CC)C2O[C@]3(C=C[C@@H](O)[C@]4(CC[C@@](C)([C@H]5CC[C@](O)(CC)[C@H](C)O5)O4)O3)[C@H](C)C[C@@H]2C)O1 (stereo partly specified)
GI50 (A549 NSCLC): 3.18 µM | TGI (A549 NSCLC): 26.9 µM | GI50 (CCRF-CEM leukemia): 2.78 µM | TGI (CCRF-CEM leukemia): 8.83 µM | GI50 (SF-539 CNS): 2.06 µM | TGI (SF-539 CNS): 4.2 µM | GI50 (SR leukemia): 2.49 µM | TGI (SR leukemia): 7.35 µM | GI50 (RXF 393 renal): 1.71 µM | TGI (RXF 393 renal): 4.04 µM | GI50 (OVCAR-3 ovarian): 1.84 µM | TGI (OVCAR-3 ovarian): 4.46 µM

Oc1c(N=Nc2ccccc2)c2ccccc2c2ccc3ccccc3c12
TGI (A549 NSCLC): > 100 µM | TGI (CCRF-CEM leukemia): > 100 µM | TGI (SF-539 CNS): 85.2 µM | TGI (SR leukemia): 32.6 µM | TGI (RXF 393 renal): > 100 µM | TGI (OVCAR-3 ovarian): > 100 µM

C=CC(=O)Nc1cccc(C)c1Nc1ncc2cc(-c3c(Cl)c(OC)cc(OC)c3Cl)ccc2n1
GI50 (A549 NSCLC): 7.27 µM | TGI (A549 NSCLC): 97.4 µM | GI50 (CCRF-CEM leukemia): 4.44 µM | TGI (CCRF-CEM leukemia): > 100 µM | GI50 (SF-539 CNS): 1.38 µM | TGI (SF-539 CNS): 10.8 µM | GI50 (SR leukemia): 2.75 µM | TGI (SR leukemia): > 100 µM | GI50 (RXF 393 renal): 1.3 µM | TGI (RXF 393 renal): 4.59 µM | GI50 (OVCAR-3 ovarian): 2.78 µM | TGI (OVCAR-3 ovarian): 13.1 µM
